From publication PMC12217462 (Antimicrobial Agents and Chemotherapy, 2025)
Where “and” joins values, the source holds several entries; their conditions need not be identical. Identical values can stand only once. Like-named read-outs stand apart in the source and are kept apart here.

What was measured:
Babesia duncani [1] = experiment: Propidium iodide-based in vitro dose-response assay, B. duncani-infected red blood cells, 384-well plates; assay type: cell-based; details: for EC90: read-out: EC90 (95% CI)
Experimental: Frozen stocks of B. duncani were provided by the Ben Mamoun lab at Yale University. Culture maintenance was undertaken as described by Singh et al^18 with the following adaptations: Media, completed DMEM/F12 (cDMEM; 20% heat-inactivated fetal bovine serum (Sigma-Aldrich catalogue #12,306 C-500ML), 1 x HT media supplement (Sigma-Aldrich catalogue # H0137-10VL), 1 x L-glutamine (Gibco, catalogue # 25030–081), 1 x antibiotic-antimycotic (Gibco catalogue #15240–062), and 1 x gentamicin (Gibco catalogue #15710–072)), was changed every other day and cultures were kept in a modular incubator gassed with 2% O2, 5% CO2, 93% N2 at 37°C. Passage occurred once a week into fresh blood at 1%–2% parasitemia, 5% hematocrit, and fresh A + blood was obtained once a week from the University of Vermont Medical Center Blood Bank. Four days before the start of drug assay testing, a 10 mL, 5% hematocrit culture was infected to 2% parasitemia with Babesia duncani. One day before the start, the media was changed, and parasitemia was assessed by light microscopy examination of Giemsa-stained thin blood smears with a minimum of 500 red blood cells counted.
Fresh A + blood was washed three times, and a stock 10% hematocrit (HCT) solution of uninfected red cells in completed F12/DMEM media (cDMEM) was created. In a 96-well plate, a pellet from a vigorously growing (≥20% parasitemia) culture was used to create a 10% hematocrit starting well that was then serially diluted five times with the stock 10% hematocrit solution. 25 µL of each serial dilution was transferred to a white, clear-bottom 384-well plate (Falcon, catalog #353963) in triplicate before 25 µL of cDMEM was added to each well, followed by 25 µL of 0.6% Triton-X, 22.5 µM PI in phosphate-buffered solution. The 384-well plate was then shaken for 30 seconds, incubated at 37°C for 1 hour (in the dark), then moved to room temperature in the dark. After 24 hours, the plate was read using a Synergy H1 (BioTek, Winooski, VT) with excitation = 535 nm, emission = 615 nm, sensitivity = 150, and readings taken from the bottom of the wells. Blood smears were made from select undiluted starting wells and stained with Giemsa, and parasitemia was calculated manually from a minimum of 1,000 counted red blood cells. The experiment was repeated twice.
(§1) Prior to the removal of the culture(s) from the modular incubator, fresh A + blood was washed three times with PSG +and compounds (in DMSO stocks) to be tested were prepared in a 96-well plate by serial dilution in cDMEM. Once prepared, the culture(s) were removed from the modular incubator, collected, and washed once with 7 mL of cDMEM. A 10% hematocrit, 5% parasitemia stock in cDMEM was made, and 25 µL aliquoted into a 384-well plate with constant agitation, followed by 25 µL of compound dilution (quadruplicates). The positive growth control was given 25 µL of 0.5% dimethyl sulfoxide (DMSO) in cDMEM (final 0.25% DMSO), and the negative growth control was 25 µL of 50 µM WR99210 (0.5% DMSO) (final 25 µM WR99210, 0.25% DMSO). Plates were incubated as previously described, smears of the positive growth control were made, and the plates were read as previously described. Smears were stained by Giemsa, and a minimum of 1,000 RBCs were counted to determine parasitemia. Dose-response assays were repeated twice.
Pilot dose-response experiments were performed using WR99210 (a DHFR inhibitor with known effect on Babesia duncani), DMSO vehicle, and standard of care drugs atovaquone, clindamycin, quinine, and azithromycin ([20]).
The positive growth control was treated with 25 µL of 0.5% dimethyl sulfoxide (DMSO) in cDMEM (final 0.25% DMSO), and the negative growth control with 25 µL of 50 µM WR99210 (0.5% DMSO) (final 25 µM WR99210, 0.25% DMSO). The plate was incubated for 48 hours and then the plate was stained and read as previously described.

Babesia duncani [2] = experiment: Bug Box single-concentration screen, PI assay in 384-well plates; assay type: cell-based; details: read-out: Inhibition in Bug Box screen (hit definition)
Experimental: as §1
The Bug Box is a collection of 40 compounds with known antimicrobial and/or bioactivity, which was provided by the Structural Genomics Consortium (SGC)-Toronto. The full list of compounds is available in the supplement. They were obtained in 10 mM aliquots and screened in 384-well plates at 1 µM and 5 µM dilutions with four technical replicates per dilution. Hits were defined as those compounds with at least 80% inhibition. Hits were validated by dose-response curves using commercially obtained compounds with verified purity. The only exception to this was in the verification of compound M7, which is a proprietary compound that could be obtained only from SGC-Toronto. Dose-response curves were created from two independent experiments, each with nine dilutions of the drug.

Babesia duncani [3] = details: cited from earlier work
HCT8 cells = experiment: Cytotoxicity on confluent monolayer HCT8 cells (Promega CellTiter Aqueous One MTS assay); assay type: cell-based, human; details: 48 hours, highest final concentration 100 µM, two replicate experiments
Experimental: Human HCT8 cells were grown in tissue culture flasks until a confluent monolayer was achieved. […] Cells were incubated with the drug for 48 hours. Promega CellTiter Aqueous One Solution Cell Proliferation Assay (MTS) (PRG3580) was commercially obtained and used to ascertain cell viability, with […] measured using a Biotek microplate reader. Cells incubated in 0.5% DMSO served as a positive growth control and comparator arm.

B. divergens = test system: B. divergens; set-up: method as in earlier work; details: ref 35 (Vanheer et al.); cited from earlier work
[4] = set-up: method as in PMID 22553374; details: oral, 28-day, once-daily dosing study in humans; cited from earlier work
[5] = cited from earlier work
[6] = Cytotoxicity on confluent monolayer HCT8 cells (Promega CellTiter Aqueous One MTS assay); assay type: cell-based; details: human HCT8 cells
solid tumor cells = test system: solid tumor cells; set-up: method as in PMID 19344997; details: cited from earlier work
liquid tumor cell lines = test system: liquid tumor cell lines; set-up: method as in PMID 19344997; details: cited from earlier work
P. falciparum = test system: P. falciparum; set-up: method as in PMID 26199860, PMID 33541085; details: depending on the strain tested; cited from earlier work
[7] = test system: normal cell lines (human mammary and renal epithelial cells, among others); set-up: method as in PMID 19344997; details: cited from earlier work
malignant cells = test system: malignant cells; set-up: method as in PMID 19344997; details: malignant cells treated; cited from earlier work
normal cells = test system: normal cells; set-up: method as in PMID 19344997; details: cited from earlier work
[8] = B. duncani in vitro, 48 hours of incubation, PI staining, read-out: EC50
[9] = Babesia duncani, Erythrocyte, 48 h, B. duncani in vitro, 48 hours of incubation, PI staining, read-out: EC50
[10] = Babesia duncani, Erythrocyte, 48 h, given in Fig 2 and Fig 3B, nine-point serial dilution, 48 hours, experiments repeated twice, read-out: EC50 (95% CI)
[11] = Babesia duncani, Erythrocyte, given in Fig 2 and Fig 3B, nine-point serial dilution, 48 hours, experiments repeated twice
[12] = screened at 5 µM, four technical replicates
[13] = Babesia duncani, Erythrocyte, Table 1, B. duncani, two replicate 9-point dilution experiments, combined data, read-out: EC50
[14] = Babesia duncani, Erythrocyte, B. duncani, read-out: In vitro IC90
[15] = Babesia duncani, Erythrocyte, conversion of B. duncani IC90, read-out: Free plasma concentration equivalent to IC90
[16] = 12 mg given orally (PO) thrice weekly

O=C1C(O)=C([C@H]2CC[C@H](c3ccc(Cl)cc3)CC2)C(=O)c2ccccc21 [Atovaquone]
EC50 (Babesia duncani [1]; [8]): 517 nM
EC50 (Babesia duncani [1]; [9]): 518 nM
EC50 (Babesia duncani [1]; [10]): 520 nM
EC90 (Babesia duncani [1]; [11]): 780 nM
inhibition at 5 µM (Babesia duncani [2]; [12]): > 80%
EC50 (Babesia duncani [3]; Babesia duncani, SYBR green assay, ref 9 (Abraham et al.)): 500 nM
EC50 (Babesia duncani [3]; later Babesia duncani testing, same lab group): 72 nM

CC[C@H]1OC(=O)[C@H](C)[C@@H](O[C@H]2C[C@@](C)(OC)[C@@H](O)[C@H](C)O2)[C@H](C)[C@@H](O[C@@H]2O[C@H](C)C[C@H](N(C)C)[C@H]2O)[C@](C)(O)C[C@@H](C)CN(C)[C@H](C)[C@@H](O)[C@]1(C)O [Azithromycin]
EC50 (Babesia duncani [1]; [9]): 12400 nM
EC50 (Babesia duncani [1]; [10]): 12000 nM
EC90 (Babesia duncani [1]; [11]): 28000 nM

O=C(/C=C/c1cccc(S(=O)(=O)Nc2ccccc2)c1)NO [Belinostat]
TC50 HCT8 (HCT8 cells): 90000 nM
EC50 (Babesia duncani [1]; [13]): 150 nM

CCC[C@@H]1C[C@@H](C(=O)N[C@@H]([C@H]2O[C@H](SC)[C@H](O)[C@@H](O)[C@H]2O)[C@H](C)Cl)N(C)C1 [Clindamycin]
EC50 (Babesia duncani [1]; [10]): > 50000 nM
Inhibition of B. duncani growth (in words) (Babesia duncani [1]; dose-response assay, 48 hours): appeared not to inhibit at all

O=C(/C=C/c1ccc(CN(CCO)CCc2c[nH]c3ccccc23)cc1)NO [Dacinostat]
TC50 HCT8 (HCT8 cells): 150000 nM
EC50 (Babesia duncani [1]; [13]): 23 nM
EC50 (B. divergens): 112 nM

Nc1ccccc1NC(=O)c1ccc(CNC(=O)OCc2cccnc2)cc1 [Entinostat]
TC50 HCT8 (HCT8 cells): 110000 nM
EC50 (Babesia duncani [1]; [13]): 23000 nM

CCN(CC)Cc1ccc2cc(COC(=O)Nc3ccc(C(=O)NO)cc3)ccc2c1 [Givinostat]
TC50 HCT8 (HCT8 cells): 43000 nM
EC50 (Babesia duncani [1]; [13]): 220 nM

Nc1ccccc1NC(=O)c1ccc(CNc2nccc(-c3cccnc3)n2)cc1 [Mocetinostat]
TC50 HCT8 (HCT8 cells): 56000 nM
EC50 (Babesia duncani [1]; [13]): 2500 nM

O=C(NO)c1cnc(N2C[C@@H]3[C@H](C2)[C@H]3NCc2ccc3cc(F)ccc3n2)nc1 [Nanatinostat]
Protocol defined maximum tolerated dose [4]: 80 mg
Cmax ([5]; single 20 mg oral dose): 186 ng/mL
TC50 HCT8 (HCT8 cells): 44000 nM
EC50 (Babesia duncani [1]; [8]): 23.8 nM
EC50 (Babesia duncani [1]; [9]): 23 nM
EC50 (Babesia duncani [1]; [13]): 24 nM
IC90 (Babesia duncani [1]; [14]): 64 nM
IC90 (Babesia duncani [1]; [15]): ~0.025 µg/mL
EC50 at 48 h [6]: 56200 nM

Cc1[nH]c2ccccc2c1CCNCc1ccc(/C=C/C(=O)NO)cc1 [Panobinostat]
TC50 HCT8 (HCT8 cells): 130000 nM
EC50 (Babesia duncani [1]; [9]): 8 nM
EC50 (Babesia duncani [1]; [13]): 8.4 nM
EC90 (Babesia duncani [1]; [11]): 37 nM
LD90 (solid tumor cells): less than 500 nM
LD90 (liquid tumor cell lines): less than 100 nM
inhibition at 5 µM (Babesia duncani [2]): > 80%
EC50 (B. divergens): 27.2 nM
EC50 (P. falciparum): 10 to 30 nM
LD90 [7]: > 5 µM
Increase in apoptotic signaling (malignant cells): 10- to 11 fold
Caspase expression compared with control (normal cells): no increase

CCCCc1nc2cc(/C=C/C(=O)NO)ccc2n1CCN(CC)CC [Pracinostat]
TC50 HCT8 (HCT8 cells): 450000 nM
EC50 (Babesia duncani [1]; [13]): 160 nM

C=C[C@H]1C[N@@]2CC[C@H]1C[C@H]2[C@H](O)c1ccnc2ccc(OC)cc12 [Quinine]
EC50 (Babesia duncani [1]; [9]): 17500 nM
EC50 (Babesia duncani [1]; [10]): 18000 nM
EC90 (Babesia duncani [1]; [11]): 33000 nM

Cn1cc(CNCC2CCN(c3ncc(C(=O)NO)cn3)CC2)c2ccccc21 [Quisinostat]
Area under the curve (AUC) [5, 16]: 18 ng*H/mL
Peak plasma concentration (Cmax) [5, 16]: 1.9 ng/mL
TC50 HCT8 (HCT8 cells): 170000 nM
EC50 (Babesia duncani [1]; [13]): 4.5 nM
IC90 (Babesia duncani [1]; [14]): 10 nM
IC90 (Babesia duncani [1]; [15]): ~0.004 µg/mL
EC50 (B. divergens): 4.6 nM
EC50 (P. falciparum): 5 to 7 nM

COc1cc(Cc2cnc(N)nc2N)cc(OC)c1OC [Trimethoprim]
EC50 (Babesia duncani [1]; [9]): 2700 nM
EC90 (Babesia duncani [1]; [11]): 4500 nM
inhibition at 5 µM (Babesia duncani [2]; [12]): > 80%

O=C(CCCCCCC(=O)Nc1ccccc1)NO [Vorinostat]
TC50 HCT8 (µM) (HCT8 cells): No toxicity

CC1(C)N=C(N)N=C(N)N1OCCCOc1cc(Cl)c(Cl)cc1Cl [WR99210]
EC50 (Babesia duncani [1]; [8]): 8.3 nM and ~8.3 nM
EC90 (Babesia duncani [1]; given in Fig 2 and Fig 3B, nine-point serial dilution, 48 hours, experiments repeated twice): 14 nM

c1ccc2c(c1)[I+]c1ccccc1-2 [diphenylene iodonium chloride, Diphenyleneiodonium chloride]
EC50 (Babesia duncani [1]; [9]): 550 nM
EC90 (Babesia duncani [1]; [11]): 1600 nM
inhibition at 5 µM (Babesia duncani [2]; [12]): > 80%
